Measured values: patent publication US20210169897A1, “Concentrated Fulvestrant Compositions” (Nevakar Inc., priority 2017, published 2021)
Converted amounts (≈) assume the structure as drawn. Where two headings read alike, the source gives them in different places.

Assays:
[1] = background, cited from earlier work
[2] = Saturation solubility of fulvestrant in combinations of solvents/detergents (Table 2); type: physicochemical
Experimental: To increase solubility, various other solvents, co-solvents, and surfactants were tested. For example, in some embodiments the monohydroxylated fatty acids (e.g., free ricinoleic acid) in the solvent were substituted with other lipid solvents such as castor oil or oleic acid. […] Here, some formulations including lipid solvents (especially in combination with ethanol and/or benzyl alcohol) can solubilize fulvestrant at a concentration higher than 60 mg/ml. Yet, most of such formulations capable of solubilizing fulvestrant at a higher concentration (e.g., higher than 60 mg/ml) require higher concentration of alcohols (e.g., higher than 30%, etc.), which may cause instability of the formulation (e.g., precipitation of fulvestrant over time, etc.). Moreover, some solvents also required substantial quantities of emulsifier (e.g., Cremophor™ (hydrogenated castor oil reacted with ethylene oxide)), which is not desirable as an ingredient for injection at the tested concentrations. Indeed, it is generally preferred that the fulvestrant compositions and solutions for injection are substantially free (i.e., less than 1% w/v, or less than 0.1% w/v, or less than 0.01% w/v) from surfactants, detergents, and/or emulsifiers.

SMILES: C[C@]12CC[C@@H]3c4ccc(O)cc4C[C@@H](CCCCCCCCC[S+]([O-])CCCC(F)(F)C(F)(F)F)[C@H]3[C@@H]1CC[C@@H]2O (stereo partly drawn) [Fulvestrant]
- solubility ([1]; fulvestrant in benzyl alcohol): > 200 mg/mL
- solubility ([1]; fulvestrant in ethanol): > 200 mg/mL
- solubility ([2]; 12.5% ethanol, 75% castor oil, 12.5% Cremophor RH 40 (% w/v), oil or lipid, thermodynamic from solid, No 11 (% w/v): 12.5% Ethanol, 75% Castor Oil, 12.5% Cremophor RH 40, read-out: Solubility): 128 mg/mL
- solubility ([2]; 50% castor oil, 10% Lipoid E 80, 40% ethanol (% w/v), oil or lipid, thermodynamic from solid, No 12 (% w/v): 50% Castor Oil, 10% Lipoid E 80, 40% Ethanol, read-out: Solubility): 49.3 mg/mL
- solubility ([2]; 50% castor oil, 25% ethanol, 25% Cremophor 40 (% w/v), oil or lipid, thermodynamic from solid, No 9 (% w/v): 50% Castor Oil, 25% Ethanol, 25% Cremophor 40, read-out: Solubility): 134 mg/mL
- solubility ([2]; 50% oleic acid, 25% ethanol, 25% Cremophor 40 (% w/v), oil or lipid, thermodynamic from solid, No 8 (% w/v): 50% Oleic Acid, 25% Ethanol, 25% Cremophor 40, read-out: Solubility): 130 mg/mL
- solubility ([2]; 60% castor oil, 18% BA, 13% ethanol, 9% Lipoid E 80 (% w/v), oil or lipid, thermodynamic from solid, No 14 (% w/v): 60% Castor Oil, 18% BA, 13% Ethanol, 9% Lipoid E 80, read-out: Solubility): 63 mg/mL
- solubility ([2]; 70% castor oil, 20% oleic acid, 5% BA, 5% ethanol (% w/v), oil or lipid, thermodynamic from solid, No 16 (% w/v): 70% Castor Oil, 20% Oleic Acid, 5% BA, 5% Ethanol, read-out: Solubility): 49.9 mg/mL
- solubility ([2]; 75% oleic acid, 12.5% ethanol, 12.5% Cremophor RH 40 (% w/v), oil or lipid, thermodynamic from solid, No 10 (% w/v): 75% Oleic Acid, 12.5% Ethanol, 12.5% Cremophor RH 40, read-out: Solubility): 113 mg/mL
- solubility ([2]; 75% oleic acid, 25% castor oil (% w/v), oil or lipid, thermodynamic from solid, No 5 (% w/v): 75% Oleic Acid, 25% Castor Oil, read-out: Solubility): 15.5 mg/mL
- solubility ([2]; 85% castor oil, 12% BA, 3% HP-B-CD (% w/v), oil or lipid, thermodynamic from solid, No 15 (% w/v): 85% Castor Oil, 12% BA, 3% HP-B-CD, read-out: Solubility): 17.2 mg/mL
- solubility ([2]; No 13 (% w/v): 15% Ethanol, 15% Castor Oil, 15% Benzyl Alcohol, 10% Lipoid E 80): 45.95 mg/mL
- solubility ([2]; oil or lipid, thermodynamic from solid, No 6 (% w/v): 49.5% Oleic Acid, 49.5% Castor Oil, 1% Polysorbate 20, read-out: Solubility): 22.8 mg/mL
- solubility ([2]; oil or lipid, thermodynamic from solid, No 7 (% w/v): 74.5% Oleic Acid, 24.5% Castor Oil, 1% Polysorbate 20, read-out: Solubility): 15.7 mg/mL
- solubility ([2]; oil or lipid, thermodynamic from solid, No 17 (% w/v): 10% Ethanol, 65% Castor Oil, 20% Oleic Acid, 5% Benzyl Alcohol, read-out: Solubility): 68.8 mg/mL
- solubility ([2]; oil or lipid, thermodynamic from solid, No 18 (% w/v): 5% Ethanol, 65% Castor Oil, 20% Oleic Acid, 10% Benzyl Alcohol, read-out: Solubility): 39.5 mg/mL
- solubility ([2]; oil or lipid, thermodynamic from solid, No 19 (% w/v): 22.5% Castor Oil, 67.5% Oleic Acid, 5% BA, 5% Ethanol, read-out: Solubility): 47.3 mg/mL
- solubility ([2]; oil or lipid, thermodynamic from solid, No 20 (% w/v): 45% Oleic Acid, 45% Castor Oil, 5% Ethanol, 5% Benzyl Alcohol, read-out: Solubility): 43.7 mg/mL
- solubility ([2]; oil or lipid, thermodynamic from solid, No 21 (% w/v): 5% Cremophor EL 35, 5% Ethanol, 5% Benzyl Alcohol, 85% Castor Oil, read-out: Solubility): 24.4 mg/mL
- solubility ([2]; solvent mixture, oil or lipid, thermodynamic from solid, No 4 (% w/v): 25% Oleic Acid, 75% Castor Oil, read-out: Solubility): 18.2 mg/mL
- solubility ([2]; solvent mixture, oil or lipid, thermodynamic from solid, No 3 (% w/v): 50% Castor Oil, 50% Oleic Acid, read-out: Solubility): 20 mg/mL
- solubility ([2]; solvent/detergent mixture, oil or lipid, thermodynamic from solid, No 1 (% w/v): 99% Oleic Acid, 1% Poly. 20, read-out: Solubility): 4.08 mg/mL
- solubility ([2]; solvent/detergent mixture, oil or lipid, thermodynamic from solid, No 2 (% w/v): 99% Castor Oil, 1% Poly. 20, read-out: Solubility): 23.2 mg/mL
- solubility ([2]; solvent/detergent mixture, oil or lipid, thermodynamic from solid, No 22 (% w/v): 5% HS 15, 5% Ethanol, 5% Benzyl Alcohol, 85% Castor Oil, read-out: Solubility): 39.2 mg/mL
- solubility ([2]; solvent/detergent mixture, oil or lipid, thermodynamic from solid, No 23 (% w/v): 5% Cremophor RH 40, 5% Ethanol, 5% Benzyl Alcohol, 85% Castor Oil, read-out: Solubility): 38 mg/mL
- solubility ([2]; solvent/detergent mixture, oil or lipid, thermodynamic from solid, No 24 (% w/v): 44.5% Oleic Acid, 44.5% Castor Oil, 5% Ethanol, 5% Benzyl Alcohol, 1% Poly. 20, read-out: Solubility): 51.9 mg/mL
- solubility ([2]; solvent/detergent mixture, oil or lipid, thermodynamic from solid, No 25 (% w/v): 67% Oleic Acid, 22% Castor Oil, 5% Ethanol, 5% Benzyl Alcohol, 1% Poly. 20, read-out: Solubility): 41 mg/mL
- solubility (physchem; Cremophor RH40, aqueous with cosolvent or surfactant or cyclodextrin): 47.2 mg/mL (≈ 77.9 mM)
- solubility (physchem; N,N-dimethylacetamide (DCAM), organic solvent or mixture): 306 mg/mL (≈ 504 mM)
- solubility (physchem; PEG 300, organic solvent or mixture): 28.3 mg/mL (≈ 46.6 mM)
- solubility (physchem; PEG 400, organic solvent or mixture): 24.8 mg/mL (≈ 40.9 mM)
- solubility (physchem; benzyl alcohol, organic solvent or mixture): 269 mg/mL (≈ 443 mM)
- solubility (physchem; benzyl benzoate, organic solvent or mixture): 3.9 mg/mL (≈ 6.43 mM)
- solubility (physchem; butyric acid, organic solvent or mixture): 318 mg/mL (≈ 524 mM)
- solubility (physchem; castor oil, oil or lipid): 21.2 mg/mL (≈ 34.9 mM)
- solubility (physchem; dimethylsulfoxide (DMSO), organic solvent or mixture): 320 mg/mL (≈ 527 mM)
- solubility (physchem; ethanol, organic solvent or mixture): 445 mg/mL (≈ 734 mM)
- solubility (physchem; heptanoic acid, organic solvent or mixture): 154 mg/mL (≈ 255 mM)
- solubility (physchem; hexanoic acid, organic solvent or mixture): 266 mg/mL (≈ 438 mM)
- solubility (physchem; octanoic acid, organic solvent or mixture): 92.2 mg/mL (≈ 152 mM)
- solubility (physchem; oleic acid, oil or lipid): 4.8 mg/mL (≈ 7.91 mM)
- solubility (physchem; olive oil, oil or lipid): 0.4 mg/mL (≈ 0.659 mM)
- solubility (physchem; propanoic acid, organic solvent or mixture): 319 mg/mL (≈ 526 mM)
- solubility (physchem; propylene glycol, organic solvent or mixture): 39.1 mg/mL (≈ 64.4 mM)
- solubility (physchem; ricinoleic acid, oil or lipid): 26 mg/mL (≈ 42.8 mM)
